± gives the standard deviation of the averaged measurements.
Experiments:
Assay in all cases: level (log10 ratio to DMSO vehicle control); higher = higher biomarker level / cell amount than vehicle control
Conditions in all cases: in DMSO
[1] = compound: O=C(O)C(F)(F)C(F)(F)C(F)(F)C(F)(F)C(F)(F)C(F)(F)C(F)(F)C(F)(F)C(F)(F)C(F)(F)C(F)(F)C(F)(F)F [Perfluorotridecanoic acid]
Procedure: (§1)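 BioMAP Diversity Plus panel of 12 human primary cell co-culture systems (3C, 4H, LPS, SAg, BT, BF4T, BE3C, CASM3C, HDF3CGF, KF3CT, MyoF, Mphg). Compounds were added 1 h before stimulation and left for 24 h (MyoF 48 h; BT 72 h for soluble read-outs or 6 d for IgG). Biomarkers were read by ELISA, cytotoxicity by SRB, PBMC viability and proliferation by Alamar Blue. Each well value was divided by the mean of 8 DMSO control wells on the same plate and log10 transformed; duplicate blinded samples were tested at 4 concentrations.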

[2] = compound: O=S(=O)(O)C(F)(F)C(F)(F)C(F)(F)C(F)(F)F [Perfluorobutanesulfonic acid]
Procedure: as §1

[3] = compound: CCCCCCCCC(F)(F)C(F)(F)C(F)(F)C(F)(F)C(F)(F)C(F)(F)F [1-(Perfluorohexyl)octane]
Procedure: as §1

[4] = compound: O=C(O)C(F)(F)C(F)(F)C(F)(F)C(F)(F)C(F)(F)F [Perfluorohexanoic acid]
Procedure: as §1

[5] = compound: N=C(N)C(F)(F)C(F)(F)C(F)(F)C(F)(F)C(F)(F)C(F)(F)C(F)(F)F [Perfluorooctanamidine]
Procedure: as §1

[6] = compound: C=CC(=O)OCCC(F)(F)C(F)(F)C(F)(F)C(F)(F)F [2-(Perfluorobutyl)ethyl acrylate]
Procedure: as §1

Row | Test System | level (log10) ([1]; 1500 nM) | level (log10) ([1]; 4400 nM) | level (log10) ([1]; 13000 nM) | level (log10) ([1]; 40000 nM) | level (log10) ([2]; 6700 nM) | level (log10) ([2]; 20000 nM) | level (log10) ([2]; 60000 nM) | level (log10) ([3]; 6700 nM) | level (log10) ([3]; 20000 nM) | level (log10) ([4]; 6700 nM) | level (log10) ([4]; 20000 nM) | level (log10) ([4]; 60000 nM) | level (log10) ([5]; 6700 nM) | level (log10) ([5]; 20000 nM) | level (log10) ([5]; 60000 nM) | level (log10) ([6]; 6700 nM) | level (log10) ([6]; 20000 nM) | level (log10) ([6]; 60000 nM)
1 | BF4T:MMP-9 | 0.01 ± 0.027 | 0.0075 ± 0.043 | -0.0015 ± 0.036 | 0.033 ± 0.078 | -0.004 ± 0.0014 | -0.0065 ± 0.028 | -0.013 ± 0.02 | -0.014 ± 0.02 | 0.005 ± 0.025 | 0.0215 ± 0.0035 | -0.01 ± 0.027 | 0.0215 ± 0.018 | -0.006 ± 0.0057 | -0.0115 ± 0.013 | 0.053 | -0.0015 ± 0.035 | -0.006 ± 0.057 | -0.013 ± 0.058
2 | BF4T:PAI-I | 0.0025 ± 0.028 | 0.005 ± 0.017 | 0.007 ± 0.02 | 0.0235 ± 0.0021 | -0.0075 ± 0.0092 | -0.005 ± 0.0042 | 0.0015 ± 0.005 | 0.0075 ± 0.026 | 0.0005 ± 0.028 | 0.011 | 0.004 ± 0.0028 | 0.0145 ± 0.0064 | 0.007 ± 0.013 | -0.001 ± 0.03 | 0.03 | -0.006 ± 0.025 | 0.007 ± 0.03 | -0.0255 ± 0.025
3 | BF4T:SRB | 0.009 ± 0.0042 | -0.0045 ± 0.005 | 0.0025 ± 0.011 | 0.008 ± 0.013 | -0.006 ± 0.0099 | -0.0085 ± 0.005 | -0.009 ± 0.0028 | -0.0045 ± 0.0035 | -0.0035 ± 0.0035 | -0.0025 ± 0.00071 | -0.0095 ± 0.0092 | 0.0105 ± 0.0064 | -0.009 ± 0.0071 | -0.0085 ± 0.0035 | -0.004 | -0.003 ± 0.0014 | -0.005 | -0.0085 ± 0.0021
4 | BF4T:tPA | 0.025 ± 0.05 | -0.009 ± 0.017 | -0.0045 ± 0.015 | -0.0085 ± 0.018 | -0.0115 ± 0.021 | 0.0025 ± 0.0092 | 0.0115 ± 0.018 | 0.0075 ± 0.013 | 0.026 ± 0.0057 | -0.0045 ± 0.0064 | -0.0035 ± 0.019 | 0.0055 ± 0.013 | 0.004 ± 0.014 | -0.027 ± 0.069 | 0.028 | 0.0005 ± 0.023 | -0.035 ± 0.023 | -0.0325 ± 0.00071
5 | BF4T:uPA | 0.0185 ± 0.018 | 0.011 ± 0.0042 | 0.0095 ± 0.0021 | 0.0155 ± 0.005 | -0.026 ± 0.02 | 0.006 ± 0.0014 | -0.014 ± 0.027 | -0.0105 ± 0.0035 | -0.0125 ± 0.00071 | 0.01 ± 0.0028 | 0.004 | 0.0105 ± 0.0078 | -0.0185 ± 0.005 | -0.0225 ± 0.011 | 0.05 | -0.008 ± 0.028 | -0.009 ± 0.02 | -0.022 ± 0.03
6 | BT:B cell Proliferation | -0.0035 ± 0.052 | 0.029 ± 0.016 | 0.01 ± 0.011 | 0.0265 ± 0.035 | -0.0025 ± 0.016 | 0.0085 ± 0.016 | 0.038 ± 0.0014 | 0.0145 ± 0.011 | 0.012 ± 0.011 | -0.047 ± 0.048 | -0.0035 ± 0.042 | 0.0275 ± 0.063 | -0.0005 ± 0.011 | -0.002 ± 0.017 | -0.086 | -0.018 ± 0.0014 | -0.0275 ± 0.011 | -0.264 ± 0.063
7 | BT:PBMC Cytotoxicity | -0.0035 ± 0.00071 | 0.0245 ± 0.005 | 0.018 ± 0.011 | 0.0165 ± 0.029 | 0.03 ± 0.044 | 0.039 ± 0.027 | 0.057 ± 0.0057 | 0 ± 0.013 | 0.0225 ± 0.0021 | -0.024 ± 0.028 | -0.0405 ± 0.028 | 0.004 ± 0.0057 | 0.005 | 0 ± 0.031 | 0.006 | -0.028 ± 0.0014 | -0.073 ± 0.018 | -0.251 ± 0.057
8 | BT:Secreted IgG | 0.001 ± 0.042 | -0.0025 ± 0.067 | -0.027 ± 0.052 | -0.029 ± 0.02 | 0.0005 ± 0.00071 | -0.0055 ± 0.023 | -0.016 ± 0.052 | 0.0355 ± 0.012 | 0.04 ± 0.028 | 0.0085 ± 0.00071 | 0.0155 ± 0.03 | -0.023 ± 0.061 | 0.0115 ± 0.039 | -0.042 ± 0.0042 | -0.034 | 0.025 ± 0.017 | -0.053 ± 0.054 | -0.359 ± 0.049
9 | BT:sIL-2 | 0.064 | 0.061 ± 0.0042 | 0.0925 ± 0.022 | 0.093 ± 0.14 | -0.0155 ± 0.079 | -0.059 ± 0.044 | -0.025 ± 0.04 | -0.024 ± 0.073 | 0.0635 ± 0.067 | -0.0225 ± 0.0064 | 0.0345 ± 0.098 | 0.0275 ± 0.074 | 0.0225 ± 0.057 | -0.01 ± 0.031 | -0.002 | 0.0045 ± 0.1 | -0.011 ± 0.016 | -0.511 ± 0.23
10 | BT:sIL-6 | 0.033 ± 0.086 | -0.0175 ± 0.026 | 0.011 ± 0.12 | -0.0485 ± 0.066 | -0.035 ± 0.061 | 0.004 ± 0.067 | 0.012 ± 0.02 | -0.0155 ± 0.094 | -0.006 ± 0.03 | -0.0375 ± 0.079 | 0.013 ± 0.062 | -0.037 ± 0.021 | 0.0205 ± 0.025 | -0.0285 ± 0.016 | -0.097 | -0.063 ± 0.041 | -0.153 ± 0.0028 | -0.76 ± 0.15
11 | BT:sIL-17A | -0.134 ± 0.0028 | -0.113 ± 0.014 | 0.155 ± 0.15 | -0.104 ± 0.11 | -0.0215 ± 0.14 | 0.157 ± 0.016 | 0.021 ± 0.2 | 0.06 ± 0.018 | 0.0085 ± 0.12 | 0.009 ± 0.22 | 0.038 ± 0.075 | -0.086 ± 0.068 | 0.1795 ± 0.00071 | -0.145 ± 0.044 | -0.141 | -0.217 ± 0.17 | -0.465 ± 0.067 | -1.03 ± 0.46
12 | BT:sIL-17F | -0.0115 ± 0.1 | -0.02 ± 0.048 | 0.0775 ± 0.067 | 0.004 ± 0.09 | 0.008 ± 0.0057 | 0.0145 ± 0.04 | -0.0225 ± 0.0064 | 0.083 ± 0.033 | 0.089 ± 0.0071 | -0.081 ± 0.0014 | -0.002 ± 0.081 | -0.047 ± 0.031 | -0.0225 ± 0.071 | -0.209 ± 0.023 | -0.112 | -0.169 ± 0.0071 | -0.393 ± 0.017 | -0.673 ± 0.061
13 | BT:sTNF-alpha | 0.0475 ± 0.064 | 0.0075 ± 0.033 | -0.054 ± 0.096 | -0.05 ± 0.067 | 0.0295 ± 0.011 | 0.0515 ± 0.071 | 0.015 ± 0.011 | 0.0415 ± 0.028 | 0.126 ± 0.16 | -0.036 ± 0.05 | -0.023 ± 0.081 | -0.01 ± 0.11 | 0.102 ± 0.099 | 0.0345 ± 0.084 | 0.01 | -0.095 ± 0.1 | -0.192 ± 0.0085 | -0.767 ± 0.3
14 | LPS:CCL2/MCP-1 | 0.005 ± 0.071 | 0.0315 ± 0.032 | 0.0145 ± 0.0078 | 0.0155 ± 0.029 | -0.0285 ± 0.057 | -0.021 ± 0.027 | -0.035 ± 0.0014 | 0.006 ± 0.021 | 0.017 ± 0.013 | -0.0035 ± 0.00071 | -0.008 ± 0.027 | -0.0045 ± 0.018 | -0.0005 ± 0.021 | -0.003 ± 0.0028 | -0.023 | -0.0075 ± 0.0035 | -0.02 ± 0.0085 | -0.0255 ± 0.029
15 | LPS:CD40 | 0.015 ± 0.092 | -0.0215 ± 0.17 | -0.032 ± 0.11 | -0.03 ± 0.092 | -0.0395 ± 0.00071 | -0.0375 ± 0.029 | -0.0555 ± 0.052 | -0.0355 ± 0.079 | -0.0205 ± 0.049 | 0.041 ± 0.096 | 0.038 ± 0.13 | 0.0215 ± 0.14 | -0.0145 ± 0.04 | -0.0525 ± 0.021 | -0.148 | -0.0445 ± 0.00071 | -0.044 ± 0.035 | -0.237 ± 0.035
16 | LPS:CD62E/E-Selectin | 0.004 ± 0.02 | 0.0025 ± 0.028 | -0.002 ± 0.0085 | -0.0065 ± 0.005 | 0.007 ± 0.0071 | 0.0255 ± 0.0092 | 0.028 ± 0.023 | -0.005 ± 0.031 | 0.0115 ± 0.029 | -0.01 ± 0.0042 | -0.0065 ± 0.012 | -0.003 ± 0.0028 | 0.0135 ± 0.00071 | -0.009 ± 0.013 | 0.019 | 0.0345 ± 0.023 | 0.033 ± 0.0071 | 0.0015 ± 0.04
